# Source: US11123354B2, “Method for the treatment of osteoarthritis” (ABIOGEN PHARMA S.P.A., priority 2016, dated 2021)
# Assays:
# [1] = system: OA rats (MIA model); assay: Difference in edema size between right and left knees, MIA-induced OA rats, weekly intra-articular treatment; assay type: in vivo, Sprague Dawley rats; conditions: 4 weekly i.a. administrations
# Excerpt: (§1) As an experimental model of OA induction, one involving the intra-articular administration of MIA (monosodium iodoacetate) was used.
# The IA injection of MIA creates a model of acute inflammation that allows the study of cartilage degradation and joint pain.
# (§2) The rats were anesthetized by a gaseous mixture of isoflurane and oxygen, and maintained in a supine position. Once the infrapatellar ligament was identified by touch, a single intra-articular injection of monosodium iodoacetate (MIA) was performed in the right knee, after having shaved the skin of the area, while keeping the joint slightly flexed. The amount of MIA injected was equal to 1 mg dissolved in 50 μl of saline solution, having a pH of about 4.5, as measured just before administration. The joint of the left knee was instead injected with 50 μl of saline solution alone, and this represented the internal control.
# (§3) The treatment involved 4 weekly administrations of sodium chlodronate, followed by one week of follow-up.
# (§4) The study included 8 treatment groups, each consisting of 10 male Sprague Dawley rats, specifically five treatment groups consisting of OA rats, on which the chlodronate doses of 2, 10, 20, 30, and 40 mg/ml, corresponding to 0.1, 0.5, 1, 1.5, and 2 mg/rat, were tested, and the remaining three groups represented by untreated OA rats, operated but untreated Sham rats, and rats administered only with placebo at pH 4.5.
# (§5) During the treatment period, the animals were regularly checked in relation to the increase in body mass, food intake, and general health conditions. Clinical and hematological analyses were performed at the end of the study. The difference between the size of the edema in the two inflamed knees for all the observation groups, the final serum concentration of CTX-I (C-telopeptide of type I collagen), as a marker of bone turnover, and the final serum concentration of CTX-II (C-telopeptide of type II collagen), as a marker of cartilage turnover were investigated.
# The measurement of the difference in size of the right and left knee edema (indicated with D and expressed in mm) was performed on anesthetized rats, by using a digital caliper (Digi-max slide caliper W/LCD readout Sigma Aldrich).
# [2] = system: CTX-II (C-telopeptide of type II collagen); assay: CTX-II final serum concentration, MIA-induced OA rats, weekly treatment; assay type: in vivo, Sprague Dawley rats
# Experimental: as §1, §2, §3, §4, §5
# Considering that CTX-II (C-telopeptide of type II collagen) is a cartilage turnover marker and its concentration levels are proportional to the […], the measurement of CTX-II final serum concentration value is a measure of the treatment efficacy.
# [3] = system: Sprague Dawley rats; assay: Local tolerability of repeated intra-articular injections; assay type: in vivo
# Experimental: With the aim to determine also the maximum dosages of chlodronate administrable in a single intra-articular injection, the local tolerability of intra-articular injections of sodium chlodronate, after repeated administration in the right knee of male and female Sprague Dawley rats, was investigated in this study.
# Groups consisting of 5 male rats and 5 female rats each were subjected to intra-articular administration of aqueous solutions comprising 4, 14 and 40 mg/ml of sodium chlodronate (corresponding to dosages of 0.2, 0.7, and 2 mg/rat).
# Each animal received a total of 12 intra-articular injections of chlodronate or placebo, administered as 3 injections per week (on Monday, Wednesday, and Friday) for 4 consecutive weeks. For the high dose group and the control group, the relative control groups with the same numerosity as the main groups were also provided.
# During the treatment period, the animals were regularly checked in relation to the increase in body mass, food intake, and general health conditions.
# At the end of the study, hematological analyses, chemical-clinical analyses, urino-analysis, and necropsy were performed.
# [4] = 4, 14 and 40 mg/ml, 12 i.a. injections (3 per week, 4 weeks)
# [5] = repeated intra-articular administration, rats
smiles,measurement,setting,value
"O=P([O-])(O)C(Cl)(Cl)P(=O)([O-])O.[Na+].[Na+] [Sodium Chlodronate, sodium chlodronate]","D, Mean Value (mm) ± SEM (difference in size of right and left knee edema)",[1]; 2 mg/ml (0.1 mg/rat),0.37 ± 0.067 mm
same,"D, Mean Value (mm) ± SEM (difference in size of right and left knee edema)",[1]; 10 mg/ml (0.5 mg/rat),0.28 ± 0.063 mm
same,"D, Mean Value (mm) ± SEM (difference in size of right and left knee edema)",[1]; 20 mg/ml (1 mg/rat),0.27 ± 0.047 mm
same,"D, Mean Value (mm) ± SEM (difference in size of right and left knee edema)",[1]; 30 mg/ml (1.5 mg/rat),0.11 ± 0.043 mm
same,"D, Mean Value (mm) ± SEM (difference in size of right and left knee edema)",[1]; 40 mg/ml (2 mg/rat),0.28 ± 0.033 mm
same,CTX-II Value,[2]; 2 mg/mL weekly i.a.,6.84 pg/mL
same,CTX-II Value,[2]; 10 mg/mL weekly i.a.,6.48 pg/mL
same,CTX-II Value,[2]; 20 mg/mL weekly i.a.,5.93 pg/mL
same,CTX-II Value,[2]; 30 mg/mL weekly i.a.,5.67 pg/mL
same,CTX-II Value,[2]; 40 mg/mL weekly i.a.,5.73 pg/mL
same,hematological analyses with differential leucocyte count and urinary analyses,[3]; [4],no alterations due to the treatment
same,necropsy examination,[3]; [4],No abnormalities
same,body weight and food consumption,"[3]; 4, 14 and 40 mg/ml, 12 i.a. injections (3 per week, 4 weeks), all animals",normal
same,"mortality, behavioral or clinical changes related to the treatment","[3]; 4, 14 and 40 mg/ml, 12 i.a. injections (3 per week, 4 weeks), male and female rats",neither mortality nor behavioral or clinical changes
same,renal effect / electrolyte serum concentration,"[3]; females, highest dose (40 mg/ml, 2 mg/rat), 12 i.a. injections",slight renal suffering with an increase in electrolyte serum concentration
same,ALP and ALT values in serum (initial hepatic suffering),"[3]; males, highest dose (40 mg/ml, 2 mg/rat), 12 i.a. injections",significant increase
same,Maximum Tolerated Dose (MTD),[3]; [5],40 mg/mL
same,NOAEL dose (No Observed Adverse Effect Level),[3]; [5],14 mg/mL
